# Source: ChEMBL document CHEMBL6083204, “Synthesis of a celastrol derivative as a cancer stem cell inhibitor through regulation of the STAT3 pathway for treatment of ovarian cancer” (RSC Med Chem, 2024)
# Calls of active or inactive are those of the source. No cut-off for these calls is given here.
# Key:
# SK-OV-3 [1] = experiment: Induction of cell cycle arrest in human SK-OV-3 cells assessed as reduction of CDK4 expression at 0.4 uM incubated for 24 hrs by flow cytometry (reference value: 66.8 %); format: functional; design: scale not given: the % may be the effect or the level left
# [2] = molecular target: Signal transducer and activator of transcription 3 (Homo sapiens) (UniProt P40763); experiment: Inhibition of STAT3 in human SK-OV-3 cells assessed as downregulation of survivin expression at 0.1 to 0.4 uM incubated for 24 hrs by Western blotting analysis; format: cell-based; details: dose 0.1-0.4 µM
# Chain of Signal transducer and activator of transcription 3 (Homo sapiens) (P40763 whole entry): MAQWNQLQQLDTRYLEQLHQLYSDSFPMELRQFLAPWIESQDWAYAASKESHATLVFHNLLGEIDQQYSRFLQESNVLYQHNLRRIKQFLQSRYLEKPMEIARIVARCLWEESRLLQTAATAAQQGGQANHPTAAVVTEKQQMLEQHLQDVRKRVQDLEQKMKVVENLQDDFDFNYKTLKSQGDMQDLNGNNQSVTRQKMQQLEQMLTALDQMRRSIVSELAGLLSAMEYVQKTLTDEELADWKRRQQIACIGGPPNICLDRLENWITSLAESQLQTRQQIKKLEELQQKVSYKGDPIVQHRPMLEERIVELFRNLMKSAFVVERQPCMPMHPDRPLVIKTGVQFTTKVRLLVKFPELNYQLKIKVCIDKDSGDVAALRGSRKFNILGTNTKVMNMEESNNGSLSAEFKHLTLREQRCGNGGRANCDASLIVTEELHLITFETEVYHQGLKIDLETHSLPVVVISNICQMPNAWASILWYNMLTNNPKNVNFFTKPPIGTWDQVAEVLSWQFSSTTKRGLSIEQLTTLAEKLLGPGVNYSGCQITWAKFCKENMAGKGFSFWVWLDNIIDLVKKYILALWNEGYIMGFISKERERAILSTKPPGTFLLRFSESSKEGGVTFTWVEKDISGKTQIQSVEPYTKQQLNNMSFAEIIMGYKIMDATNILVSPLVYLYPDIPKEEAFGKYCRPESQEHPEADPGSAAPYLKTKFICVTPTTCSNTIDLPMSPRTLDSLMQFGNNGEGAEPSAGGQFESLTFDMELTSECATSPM
# A2780 [3] = experiment: Induction of cell cycle arrest in human A2780 cells assessed as accumulation of cells at S phase at 0.2 uM incubated for 24 hrs by BrdU staining based flow cytometry (reference value: 51.6 %); format: functional
# [4] = molecular target: Tyrosine-protein kinase JAK2 (Homo sapiens) (UniProt O60674); experiment: Inhibition of JAK2 in human SK-OV-3 cells assessed as downregulation of JAK2 expression at 0.1 to 0.4 uM incubated for 24 hrs by Western blotting analysis; format: cell-based; details: dose 0.1-0.4 µM
# Chain of Tyrosine-protein kinase JAK2 (Homo sapiens) (O60674 whole entry): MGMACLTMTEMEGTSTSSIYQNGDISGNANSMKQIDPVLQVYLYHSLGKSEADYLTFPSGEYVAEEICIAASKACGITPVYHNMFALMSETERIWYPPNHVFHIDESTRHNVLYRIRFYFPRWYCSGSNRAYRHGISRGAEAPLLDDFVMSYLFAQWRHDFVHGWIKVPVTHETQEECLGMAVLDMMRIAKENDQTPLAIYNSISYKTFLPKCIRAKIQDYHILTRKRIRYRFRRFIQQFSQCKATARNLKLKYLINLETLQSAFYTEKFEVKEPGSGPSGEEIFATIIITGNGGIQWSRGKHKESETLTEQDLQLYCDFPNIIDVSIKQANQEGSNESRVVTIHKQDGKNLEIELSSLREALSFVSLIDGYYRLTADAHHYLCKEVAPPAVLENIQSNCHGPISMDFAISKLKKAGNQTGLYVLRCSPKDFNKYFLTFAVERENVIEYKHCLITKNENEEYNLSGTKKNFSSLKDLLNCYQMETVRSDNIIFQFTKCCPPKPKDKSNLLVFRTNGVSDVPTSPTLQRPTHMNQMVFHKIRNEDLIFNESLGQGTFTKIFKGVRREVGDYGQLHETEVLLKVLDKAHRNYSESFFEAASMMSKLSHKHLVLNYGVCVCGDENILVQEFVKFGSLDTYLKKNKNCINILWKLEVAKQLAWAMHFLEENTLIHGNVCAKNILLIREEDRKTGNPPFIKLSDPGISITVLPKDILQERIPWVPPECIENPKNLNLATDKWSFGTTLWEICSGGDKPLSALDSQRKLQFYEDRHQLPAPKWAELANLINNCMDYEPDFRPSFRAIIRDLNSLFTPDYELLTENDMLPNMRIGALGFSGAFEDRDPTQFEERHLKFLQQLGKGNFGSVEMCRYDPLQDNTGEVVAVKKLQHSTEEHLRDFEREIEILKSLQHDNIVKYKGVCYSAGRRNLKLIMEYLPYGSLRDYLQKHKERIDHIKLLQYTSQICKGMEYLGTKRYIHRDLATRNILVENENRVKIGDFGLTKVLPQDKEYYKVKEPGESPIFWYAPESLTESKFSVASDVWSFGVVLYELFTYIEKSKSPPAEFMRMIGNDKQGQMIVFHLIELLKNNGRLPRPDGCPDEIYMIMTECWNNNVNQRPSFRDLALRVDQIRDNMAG
# [5] = molecular target: Signal transducer and activator of transcription 3 (Homo sapiens) (UniProt P40763); experiment: Inhibition of STAT3 in human SK-OV-3 cells assessed as downregulation of STAT3 phosphorylation at Tyr705 residue incubated for 24 hrs by Western blotting analysis; format: cell-based
# SK-OV-3 [6] = experiment: Induction of apoptosis in human SK-OV-3 cells assessed as late apoptotic cells at 0.4 uM incubated for 24 hrs by Annexin V-FITC/7-AAD staining based flow cytometry (reference value: 3.7 %); format: functional
# [7] = molecular target: Signal transducer and activator of transcription 3 (Homo sapiens) (UniProt P40763); experiment: Inhibition of STAT3 in human SK-OV-3 cells assessed as downregulation of STAT3 expression in nuclei at 0.2 uM incubated for 24 hrs by Hoechst33342 staining based immunofluorescence assay; format: cell-based
# SK-OV-3 [8] = experiment: Inhibition of cell migration in human SK-OV-3 cells assessed as reduction in number of migrated cells at 0.1 to 0.4 uM incubated for 24 hrs by crystal violet staining based transwell assay; format: functional; details: dose 0.1-0.4 µM
# SK-OV-3 [9] = experiment: Antiproliferative activity against human SK-OV-3 cells assessed as inhibition of cell growth incubated for 72 hrs by MTT assay; format: functional, cell-based; details: SK-OV-3, 72 h
# [10] = molecular target: Tyrosine-protein kinase JAK1 (Homo sapiens) (UniProt P23458); experiment: Inhibition of JAK1 in human SK-OV-3 cells assessed as downregulation of JAK1 phosphorylation at 0.1 to 0.4 uM incubated for 24 hrs by Western blotting analysis; format: cell-based; details: dose 0.1-0.4 µM
# Chain of Tyrosine-protein kinase JAK1 (Homo sapiens) (P23458 whole entry): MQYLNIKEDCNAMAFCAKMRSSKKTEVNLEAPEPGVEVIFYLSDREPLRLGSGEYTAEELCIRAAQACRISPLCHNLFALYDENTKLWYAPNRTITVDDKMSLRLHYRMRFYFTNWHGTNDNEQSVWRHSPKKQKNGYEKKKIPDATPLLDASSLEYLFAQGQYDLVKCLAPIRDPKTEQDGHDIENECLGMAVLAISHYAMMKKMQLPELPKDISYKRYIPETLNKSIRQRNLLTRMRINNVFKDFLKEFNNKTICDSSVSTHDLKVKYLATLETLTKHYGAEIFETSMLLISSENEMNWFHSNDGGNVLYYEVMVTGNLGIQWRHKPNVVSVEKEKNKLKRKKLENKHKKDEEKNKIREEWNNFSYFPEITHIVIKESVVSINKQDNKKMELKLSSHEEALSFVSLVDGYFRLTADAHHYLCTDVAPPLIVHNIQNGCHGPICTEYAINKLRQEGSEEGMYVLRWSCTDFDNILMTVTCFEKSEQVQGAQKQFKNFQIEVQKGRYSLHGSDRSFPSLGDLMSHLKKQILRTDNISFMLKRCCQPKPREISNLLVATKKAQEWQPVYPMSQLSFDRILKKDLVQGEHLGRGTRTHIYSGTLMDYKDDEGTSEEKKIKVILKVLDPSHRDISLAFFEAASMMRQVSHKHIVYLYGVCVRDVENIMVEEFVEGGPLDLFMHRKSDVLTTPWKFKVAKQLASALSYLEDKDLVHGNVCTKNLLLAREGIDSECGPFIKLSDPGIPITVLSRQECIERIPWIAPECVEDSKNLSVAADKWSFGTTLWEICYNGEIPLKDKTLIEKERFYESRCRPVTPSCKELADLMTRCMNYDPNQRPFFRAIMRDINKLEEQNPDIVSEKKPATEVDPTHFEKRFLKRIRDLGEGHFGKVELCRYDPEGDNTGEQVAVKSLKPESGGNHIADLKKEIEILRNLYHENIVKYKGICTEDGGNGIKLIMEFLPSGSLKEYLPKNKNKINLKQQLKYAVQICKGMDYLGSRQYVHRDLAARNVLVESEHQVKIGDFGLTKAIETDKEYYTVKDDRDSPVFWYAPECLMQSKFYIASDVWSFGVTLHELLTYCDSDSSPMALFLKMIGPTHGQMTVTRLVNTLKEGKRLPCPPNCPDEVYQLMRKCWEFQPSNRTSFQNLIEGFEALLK
# A2780 [11] = experiment: Induction of apoptosis in human A2780 cells assessed as increase in caspase-8 activity at 0.4 uM incubated for 24 hrs by flow cytometry (reference value: 1.2 %); format: functional
# A2780 [12] = experiment: Induction of cell cycle arrest in human A2780 cells assessed as accumulation of cells at S phase at 0.8 uM incubated for 24 hrs by BrdU staining based flow cytometry (reference value: 51.6 %); format: functional
# SK-OV-3 [13] = experiment: Induction of cell cycle arrest in human SK-OV-3 cells assessed as accumulation of cells at G0/G1 phase at 0.4 uM incubated for 24 hrs by BrdU staining based flow cytometry (reference value: 59.8 %); format: functional
# A2780 [14] = experiment: Induction of apoptosis in human A2780 cells assessed as increase in caspase-8 activity at 0.8 uM incubated for 24 hrs by flow cytometry (reference value: 1.2 %); format: functional
# [15] = molecular target: Signal transducer and activator of transcription 3 (Homo sapiens) (UniProt P40763); experiment: Inhibition of STAT3 in human A2780 cells assessed as downregulation of cytoplasmic STAT3 phosphorylation at Ser727 residue at 0.2 uM incubated for 24 hrs by Hoechst33342 staining based immunofluorescence assay; format: cell-based
# A2780 [16] = experiment: Induction of apoptosis in human A2780 cells assessed as late apoptotic cells at 0.4 uM incubated for 24 hrs by Annexin V-FITC/7-AAD staining based flow cytometry (reference value: 2.1 %); format: functional
# SK-OV-3 [17] = experiment: Antitumor activity against human SK-OV-3 cells xenografted in BALB/c mouse assessed as appearance of loosely arranged cells in tumor tissue at 2 to 5 mg/kg,ip administrated for 21 consecutive days by hematoxylin and eosin staining based assay; format: functional, organism-based; details: dose 2-5 mg/kg
# SK-OV-3 [18] = experiment: Induction of apoptosis in human SK-OV-3 cells assessed as viable cells at 0.4 uM incubated for 24 hrs by Annexin V-FITC/7-AAD staining based flow cytometry (reference value: 94.6 %); format: functional; details: read-out: Activity
# A2780 [19] = experiment: Antiproliferative activity against human A2780 cells assessed as decrease in ALDH positive cells at 0.2 uM incubated for 24 hrs by ALDEFLUOR staining based flow cytometry (reference value: 32.5 %); format: functional; design: scale not given: the % may be the effect or the level left
# [20] = Toxicity in BALB/c mouse xenografted with human SK-OV-3 cells assessed as behavioral change at 2 to 5 mg/kg,ip administrated for 21 consecutive days; format: organism-based; details: in vivo, dose 2-5 mg/kg
# [21] = molecular target: Signal transducer and activator of transcription 3 (Homo sapiens) (UniProt P40763); experiment: Inhibition of STAT3 in human A2780 cells assessed as downregulation of STAT3 phosphorylation at Ser727 residue in nuclei at 0.2 uM incubated for 24 hrs by Hoechst33342 staining based immunofluorescence assay; format: cell-based
# SK-OV-3 [22] = experiment: Induction of cell cycle arrest in human SK-OV-3 cells assessed as reduction of CDK2 expression at 0.4 uM incubated for 24 hrs by flow cytometry (reference value: 94.4 %); format: functional; design: scale not given: the % may be the effect or the level left
# SK-OV-3 [23] = experiment: Induction of apoptosis in human SK-OV-3 cells assessed as necrotic cells at 0.8 uM incubated for 24 hrs by Annexin V-FITC/7-AAD staining based flow cytometry (reference value: 0.6 %); format: functional
# A2780 [24] = experiment: Induction of apoptosis in human A2780 cells assessed as necrotic cells at 0.4 uM incubated for 24 hrs by Annexin V-FITC/7-AAD staining based flow cytometry (reference value: 1 %); format: functional
# SK-OV-3 [25] = experiment: Induction of apoptosis in human SK-OV-3 cells assessed as increase in caspase-8 activity at 0.2 uM incubated for 24 hrs by flow cytometry (reference value: 2.5 %); format: functional
# [26] = molecular target: Signal transducer and activator of transcription 3 (Homo sapiens) (UniProt P40763); experiment: Inhibition of STAT3 in human SK-OV-3 cells assessed as downregulation of STAT3 phosphorylation at Ser727 residue incubated for 24 hrs by Western blotting analysis; format: cell-based
# A2780 [27] = experiment: Induction of cell cycle arrest in human A2780 cells assessed as reduction of Cyclin D1 expression at 0.2 uM incubated for 24 hrs by flow cytometry (reference value: 92.5 %); format: functional; design: scale not given: the % may be the effect or the level left
# A2780 [28] = experiment: Induction of apoptosis in human A2780 cells assessed as early apoptotic cells at 0.8 uM incubated for 24 hrs by Annexin V-FITC/7-AAD staining based flow cytometry (reference value: 1.9 %); format: functional
# SK-OV-3 [29] = experiment: Induction of ROS production in human SK-OV-3 cells assessed as increase in fluorescence intensity incubated for 24 hrs by DCFH-DA staining based flow cytometry; format: functional, cell-based
# SK-OV-3 [30] = experiment: Induction of cell cycle arrest in human SK-OV-3 cells assessed as accumulation of cells at G2/M phase at 0.8 uM incubated for 24 hrs by BrdU staining based flow cytometry (reference value: 6.3 %); format: functional
# SK-OV-3 [31] = experiment: Induction of apoptosis in human SK-OV-3 cells assessed as increase in caspase-3 activity at 0.2 uM incubated for 24 hrs by flow cytometry (reference value: 4.6 %); format: functional
# A2780 [32] = experiment: Induction of cell cycle arrest in human A2780 cells assessed as reduction of CDK4 expression at 0.8 uM incubated for 24 hrs by flow cytometry (reference value: 93.6 %); format: functional; design: scale not given: the % may be the effect or the level left
smiles,measurement,setting,value
CC1=C(O)C(=O)C=C2C1=CC=C1[C@@]2(C)CC[C@@]2(C)[C@@H]3C[C@](C)(C(=O)N4CCNCC4)CC[C@]3(C)CC[C@]12C,Activity,SK-OV-3 [1],70.6%
same,inhibition,[2],Active
same,Activity,A2780 [3],41.7%
same,inhibition,[4],Active
same,inhibition,[5],Dose-dependent-effect
same,Activity,SK-OV-3 [6],11.5%
same,inhibition,[7],Active
same,inhibition,SK-OV-3 [8],Active
same,IC50,SK-OV-3 [9],210 nM
same,inhibition,[10],Active
same,Activity,A2780 [11],9.8%
same,Activity,A2780 [12],6.2%
same,Activity,SK-OV-3 [13],49.2%
same,Activity,A2780 [14],12%
same,inhibition,[15],Active; Showed Mild Inhibition Activity
same,Activity,A2780 [16],15%
same,Activity,SK-OV-3 [17],Active
same,viability at 0.4 µM,SK-OV-3 [18],64.4%
same,Activity,A2780 [19],3.83%
same,Activity,[20],Non-toxic
same,inhibition,[21],Active
same,Activity,SK-OV-3 [22],80.7%
same,Activity,SK-OV-3 [23],1.4%
same,Activity,A2780 [24],2.3%
same,Activity,SK-OV-3 [25],6.2%
same,inhibition,[26],Dose-dependent-effect
same,Activity,A2780 [27],85.2%
same,Activity,A2780 [28],1.7%
same,Activity,SK-OV-3 [29],Dose-dependent-effect
same,Activity,SK-OV-3 [30],18.2%
same,Activity,SK-OV-3 [31],6.8%
same,Activity,A2780 [32],18.7%
